Values joined by “and” are separate entries in the source; they are usually repeats but may differ in a detail not shown here. Equal entries are not always repeated. Inconclusive results and toxic doses are left out.
System: P388 leukemia ip, CD2F1 mice, survival T/C
Assay: NCI In Vivo Anticancer Drug Screen. Data for tumor model P388 Leukemia (intraperitoneal) in CD2F1 (CDF1) mice
Settings: endpoint: median survival time, higher = longer survival
Procedure, shortened: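 Mice carrying the transplanted tumor received test compound or vehicle. Survival was recorded in each group, and the value is the treated-group measurement divided by that of the vehicle-treated control group.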

[1] = dose: 100.0 mg/kg/injection, schedule: Q01DX009 (ip), vehicle: saline with Tween-80
[2] = dose: 100.0 mg/kg/injection, schedule: Q04DX003 (ip), vehicle: saline with Tween-80
[3] = dose: 200.0 mg/kg/injection, schedule: Q01DX009 (ip), vehicle: saline with Tween-80
[4] = dose: 200.0 mg/kg/injection, schedule: Q04DX003 (ip), vehicle: saline with Tween-80
[5] = dose: 50.0 mg/kg/injection, schedule: Q01DX009 (ip), vehicle: saline with Tween-80
[6] = dose: 100.0 mg/kg/injection, schedule: Q01DX001 (ip), vehicle: saline with Tween-80
[7] = dose: 200.0 mg/kg/injection, schedule: Q01DX001 (ip), vehicle: saline with Tween-80
[8] = dose: 50.0 mg/kg/injection, schedule: Q01DX005 (ip), vehicle: Klucel (hydroxypropylcellulose) (HPC)
[9] = dose: 100.0 mg/kg/injection, schedule: Q01DX005 (ip), vehicle: Klucel (hydroxypropylcellulose) (HPC)
[10] = dose: 50.0 mg/kg/injection, schedule: Q01DX005 (ip), vehicle: saline with Tween-80
[11] = dose: 100.0 mg/kg/injection, schedule: Q01DX005 (ip), vehicle: saline with Tween-80
[12] = dose: 200.0 mg/kg/injection, schedule: Q01DX005 (ip), vehicle: saline with Tween-80
[13] = dose: 50.0 mg/kg/injection, schedule: Q01DX009 (ip), vehicle: Klucel (hydroxypropylcellulose) (HPC)
[14] = dose: 100.0 mg/kg/injection, schedule: Q01DX009 (ip), vehicle: Klucel (hydroxypropylcellulose) (HPC)
[15] = dose: 200.0 mg/kg/injection, schedule: Q01DX009 (ip), vehicle: Klucel (hydroxypropylcellulose) (HPC)

Structure (SMILES): CCOC(=O)CN1CCC2CC1c1c([nH]c3ccccc13)C2c1cc2c(cc1OC)N(C)C1C(O)(C(=O)OC)C(OC(C)=O)C3(CC)C=CCN4CCC21C43 (stereo not drawn)
- T/C (dose: 0.03 mg/kg/injection, schedule: Q04DX003 (ip), vehicle: saline with Tween-80): 94 % of control
- T/C (dose: 0.06 mg/kg/injection, schedule: Q01DX009 (ip), vehicle: Klucel (hydroxypropylcellulose) (HPC)): 94 % of control
- T/C (dose: 0.06 mg/kg/injection, schedule: Q04DX003 (ip), vehicle: saline with Tween-80): 92 % of control
- T/C (dose: 0.13 mg/kg/injection, schedule: Q01DX009 (ip), vehicle: Klucel (hydroxypropylcellulose) (HPC)): 93 % of control
- T/C (dose: 0.13 mg/kg/injection, schedule: Q04DX003 (ip), vehicle: saline with Tween-80): 95 % of control
- T/C (dose: 0.25 mg/kg/injection, schedule: Q04DX003 (ip), vehicle: saline with Tween-80): 98 % of control
- T/C (dose: 0.5 mg/kg/injection, schedule: Q04DX003 (ip), vehicle: saline with Tween-80): 112 % of control
- T/C (dose: 1.0 mg/kg/injection, schedule: Q01DX009 (ip), vehicle: Klucel (hydroxypropylcellulose) (HPC)): 90 % of control
- T/C (dose: 13.0 micrograms/kg/injection, schedule: Q01DX009 (ip), vehicle: Klucel (hydroxypropylcellulose) (HPC)): 98 % of control
- T/C (dose: 25.0 micrograms/kg/injection, schedule: Q01DX009 (ip), vehicle: Klucel (hydroxypropylcellulose) (HPC)): 103 % of control
- T/C (dose: 50.0 micrograms/kg/injection, schedule: Q01DX009 (ip), vehicle: Klucel (hydroxypropylcellulose) (HPC)): 94 % of control
- T/C (dose: 100.0 micrograms/kg/injection, schedule: Q01DX009 (ip), vehicle: Klucel (hydroxypropylcellulose) (HPC)): 100 % of control
- T/C (dose: 200.0 micrograms/kg/injection, schedule: Q01DX009 (ip), vehicle: Klucel (hydroxypropylcellulose) (HPC)): 103 % of control

Structure (SMILES): O=C1c2cc(O)c(O)cc2O[C@H](c2ccc(O)c(O)c2)[C@H]1O
- T/C [1]: 120 % of control
- T/C [2]: 100 % of control
- T/C [3]: 110 % of control
- T/C [4]: 100 % of control
- T/C (dose: 400.0 mg/kg/injection, schedule: Q01DX009 (ip), vehicle: saline with Tween-80): 120 % of control
- T/C (dose: 400.0 mg/kg/injection, schedule: Q04DX003 (ip), vehicle: saline with Tween-80): 109 % of control

Structure (SMILES): C=CC(C#N)(C=C)C=C
- T/C (dose: 12.5 mg/kg/injection, schedule: Q01DX009 (ip), vehicle: saline with Tween-80): 104 % of control
- T/C (dose: 25.0 mg/kg/injection, schedule: Q01DX009 (ip), vehicle: saline with Tween-80): 103 % of control
- T/C [5]: 108 % of control

Structure (SMILES): O=C1CCSC(=S)N1c1ccc(Br)c(Cl)c1
- T/C (dose: 50.0 mg/kg/injection, schedule: Q01DX009 (ip), vehicle: suspension in saline): 116 % of control
- T/C (dose: 100.0 mg/kg/injection, schedule: Q01DX009 (ip), vehicle: suspension in saline): 116 % of control
- T/C (dose: 200.0 mg/kg/injection, schedule: Q01DX009 (ip), vehicle: suspension in saline): 106 % of control

Structure (SMILES): CCC1COC(Nc2cccc3c2CCCC3)=N1 (stereo not drawn)
- T/C [6]: 95 % of control
- T/C [7]: 90 % of control

Structure (SMILES): COC(=O)Cn1/c(=N\N=C(/C)c2ccc(C)cc2)sc2ccccc21
- T/C [6]: 95 % of control
- T/C [7]: 91 % of control

Structure (SMILES): COc1cc(NS(C)(=O)=O)ccc1Nc1c2ccc(Cl)cc2nc2c(OC)cccc12
- T/C (dose: 3.13 mg/kg/injection, schedule: Q01DX009 (ip), vehicle: saline): 166 % of control
- T/C (dose: 6.25 mg/kg/injection, schedule: Q01DX009 (ip), vehicle: saline): 195 % of control
- T/C (dose: 6.25 mg/kg/injection, schedule: Q04DX003 (ip), vehicle: saline with Tween-80): 154 % of control
- T/C (dose: 8.25 mg/kg/injection, schedule: Q04DX003 (ip), vehicle: saline with Tween-80): 179 % of control
- T/C (dose: 12.5 mg/kg/injection, schedule: Q01DX009 (ip), vehicle: saline): 208 % of control
- T/C (dose: 12.5 mg/kg/injection, schedule: Q04DX003 (ip), vehicle: saline with Tween-80): 170 % of control and 204 % of control
- T/C (dose: 18.75 mg/kg/injection, schedule: Q04DX003 (ip), vehicle: saline with Tween-80): 229 % of control

Structure (SMILES): O=c1[nH]cnc(O)c1C1C=CC=CC=C1
- T/C [8]: 105 % of control
- T/C [9]: 114 % of control

Structure (SMILES): CCOC(=O)C(=CNc1cc(C)ccn1)C(=O)OCC
- T/C [5]: 104 % of control
- T/C [1]: 95 % of control
- T/C (dose: 100.0 mg/kg/injection, schedule: Q04DX003 (ip), vehicle: saline): 95 % of control
- T/C [3]: 100 % of control
- T/C (dose: 200.0 mg/kg/injection, schedule: Q04DX003 (ip), vehicle: saline): 100 % of control

Structure (SMILES): CN(C)CCC[n+]1cc2c3ccccc3c(N)cc2c2ccccc21
- T/C (dose: 3.13 mg/kg/injection, schedule: Q04DX003 (ip), vehicle: water): 104 % of control
- T/C (dose: 6.25 mg/kg/injection, schedule: Q04DX003 (ip), vehicle: water): 121 % of control
- T/C (dose: 12.5 mg/kg/injection, schedule: Q04DX003 (ip), vehicle: water): 109 % of control
- T/C (dose: 25.0 mg/kg/injection, schedule: Q04DX003 (ip), vehicle: water): 109 % of control

Structure (SMILES): C=C1C(=O)C2=CC1CCC(=O)C1(C)CCC(OC(C)=O)C(C)(C)C1CC2O (stereo not drawn)
- T/C (dose: 7.5 mg/kg/injection, schedule: Q01DX009 (ip), vehicle: Klucel (hydroxypropylcellulose) (HPC)): 105 % of control and 107 % of control
- T/C (dose: 15.0 mg/kg/injection, schedule: Q01DX009 (ip), vehicle: Klucel (hydroxypropylcellulose) (HPC)): 110 % of control and 120 % of control and 123 % of control
- T/C (dose: 30.0 mg/kg/injection, schedule: Q01DX009 (ip), vehicle: Klucel (hydroxypropylcellulose) (HPC)): 102 % of control and 113 % of control and 114 % of control
- T/C (dose: 60.0 mg/kg/injection, schedule: Q01DX009 (ip), vehicle: Klucel (hydroxypropylcellulose) (HPC)): 111 % of control and 124 % of control

Structure (SMILES): S=C(NCNC(=S)c1ccncc1)c1ccncc1
- T/C [10]: 100 % of control and 111 % of control
- T/C [11]: 108 % of control and 120 % of control
- T/C [12]: 104 % of control

Structure (SMILES): CC(/C=N/N=C1\C(=O)Nc2ccccc21)=C\c1ccccc1
- T/C [13]: 95 % of control
- T/C [14]: 94 % of control
- T/C [15]: 100 % of control

Structure (SMILES): CCN(CC)c1ccc([P+](=O)O)cc1
- T/C (dose: 50.0 mg/kg/injection, schedule: Q01DX009 (ip), vehicle: saline): 108 % of control
- T/C (dose: 100.0 mg/kg/injection, schedule: Q01DX009 (ip), vehicle: saline): 100 % of control

Structure (SMILES): Cc1c(-c2ccccc2)ccnc1/C=N/NS(=O)(=O)c1ccccc1
- T/C (dose: 50.0 mg/kg/injection, schedule: Q01DX009 (ip), vehicle: other): 103 % of control
- T/C (dose: 100.0 mg/kg/injection, schedule: Q01DX009 (ip), vehicle: other): 97 % of control
- T/C (dose: 200.0 mg/kg/injection, schedule: Q01DX009 (ip), vehicle: other): 96 % of control

Structure (SMILES): O=C(NCc1ccccc1)c1ccc(Cl)c(Cl)c1
- T/C (dose: 25.0 mg/kg/injection, schedule: Q04DX003 (ip), vehicle: saline with Tween-80): 101 % of control
- T/C (dose: 50.0 mg/kg/injection, schedule: Q04DX003 (ip), vehicle: saline with Tween-80): 104 % of control
- T/C [2]: 90 % of control
- T/C [4]: 95 % of control

Structure (SMILES): COc1ccc(N=C(c2ccccc2)C2C(=O)c3ccccc3C2=O)cc1
- T/C [10]: 103 % of control
- T/C [11]: 108 % of control
- T/C [12]: 112 % of control

Structure (SMILES): Cn1ccc2c3c(ccc21)C(N1CCOCC1)=CS(=O)(=O)O3
- T/C [8]: 104 % of control
- T/C [9]: 98 % of control
- T/C (dose: 200.0 mg/kg/injection, schedule: Q01DX005 (ip), vehicle: Klucel (hydroxypropylcellulose) (HPC)): 100 % of control

Structure (SMILES): COc1cccc(/C=N\NC(=O)C(=O)N/N=C\c2cccc(OC)c2O)c1O
- T/C [13]: 86 % of control
- T/C [14]: 89 % of control
- T/C [15]: 92 % of control

Structure (SMILES): C=C1CC(OC(=O)C(C)C)C2C(=C)C(=O)O[C@@H]2C2C(=C)[C@@H](O)CC12 (stereo partly drawn)
- T/C (dose: 20.0 mg/kg/injection, schedule: Q01DX005 (ip), vehicle: saline with Tween-80): 102 % of control
- T/C (dose: 40.0 mg/kg/injection, schedule: Q01DX005 (ip), vehicle: saline with Tween-80): 106 % of control
- T/C (dose: 80.0 mg/kg/injection, schedule: Q01DX005 (ip), vehicle: saline with Tween-80): 115 % of control
